Counter-ions that a name gives are not always drawn.

For the first assay, the system named is IL-5 production in human blood. The assay is described as follows: In vitro inhibition of IL-5 production in human blood (phytohemagglutinin-stimulated whole blood, ELISA). The format is cell-based. To be noted: test dose 1×10^−6 M, phytohemagglutinin 2 μg/ml, 48 hours. The protocol: EXAMPLE C.1: IN VITRO INHIBITION OF IL-5 PRODUCTION IN HUMAN BLOOD
Peripheral blood from healthy male donors was drawn into heparinized syringes (12.5 U heparin/ml). Blood samples were three-fold diluted in RMPI 1640 medium (Life Technologies, Belgium) supplemented with 2 mM L-glutamine, 100 U/ml penicillin and 100 μg/ml streptomycin, and 300 μl fractions were distributed in 24-well multidisc plates. Blood samples were preincubated (60 minutes at 37° C.) in a humidified 6% CO2-atmosphere with 100 μl of drug solvent (final concentration 0.02% dimethylsulfoxide in RPMI 1640) or with 100 μl of an appropriate dose of test compound before being stimulated by the addition of 100 μl of phytohemagglutinin HA17 (Murex, UK) at a final concentration of 2 μg/ml. After 48 hours, cell-free supernatant fluids were collected by centrifugation and stored at −70° C. until tested for the presence of IL-5.
IL-5 measurements were conducted as described in Van Wauwe et al. (1996, Inflamm Res, 45, 357-363) on page 358 using ELISA.
Table 6 lists the percentage inhibition of IL-5 production (column “% inh”) at a test dose of 1×10^−6 M, or in case the percentage inhibition is marked with an “*” 1×10^−5 M, for the compounds of the present invention.
A general note: An ELISA detects its analyte on a solid surface through an enzyme-linked reagent.
Regarding `CC(C)(c1noc(-c2ccccc2Cl)n1)c1c(Cl)cc(-n2ncc(=O)[nH]c2=O)cc1Cl` [Compound 89], the “% inh. (percentage inhibition of IL-5 production)” value worked out at 84%.

For `CC(C)(c1noc(-c2cccc(F)c2)n1)c1c(Cl)cc(-n2ncc(=O)[nH]c2=O)cc1Cl` [Compound 90], the “% inh. (percentage inhibition of IL-5 production)” value was 91%. The same measure, in the same setting: the value for `Cc1cccc(-c2nc(C(C)(C)c3c(Cl)cc(-n4ncc(=O)[nH]c4=O)cc3Cl)no2)c1` [Compound 91] was 81%; that for `CC(C)(c1noc(-c2cccs2)n1)c1c(Cl)cc(-n2ncc(=O)[nH]c2=O)cc1Cl` [Compound 92] was 80%. On to `CC(C)(c1noc(-c2cccc(Cl)c2)n1)c1c(Cl)cc(-n2ncc(=O)[nH]c2=O)cc1Cl` [Compound 93], for which the “% inh. (percentage inhibition of IL-5 production)” value is 84%.

On to `CC(C)(c1noc(-c2ccc(F)cc2)n1)c1c(Cl)cc(-n2ncc(=O)[nH]c2=O)cc1Cl` [Compound 96], for which the “% inh. (percentage inhibition of IL-5 production)” value is 82%. On the same count and under the same terms, in the case of `CC(C)(c1noc(-c2ccccn2)n1)c1c(Cl)cc(-n2ncc(=O)[nH]c2=O)cc1Cl` [Compound 98] it was 58%. Take `CC(C)(NC(=O)c1cccnc1)c1c(Cl)cc(-n2ncc(=O)[nH]c2=O)cc1Cl` [Compound 101]: the “% inh. (percentage inhibition of IL-5 production)” value was 19%. The same measure, in the same setting: the value for `Cc1ccc(-c2nc(C(C)(C)c3c(Cl)cc(-n4ncc(=O)[nH]c4=O)cc3Cl)sc2Br)s1` [Compound 111] was 88%. With `CN1CCN(Cc2ccc(-c3csc(C(C)(C)c4c(Cl)cc(-n5ncc(=O)[nH]c5=O)cc4Cl)n3)s2)CC1` [Compound 112], the “% inh. (percentage inhibition of IL-5 production)” value is 39%. With `CN1CCN(Cc2ccsc2-c2csc(C(C)(C)c3c(Cl)cc(-n4ncc(=O)[nH]c4=O)cc3Cl)n2)CC1.O` [Compound 113], the “% inh. (percentage inhibition of IL-5 production)” value worked out at 28%. The same measure, in the same setting: in the case of `CC(C)(C)OC(=O)c1sc(C(C)(C)c2c(Cl)cc(-n3ncc(=O)[nH]c3=O)cc2Cl)nc1-c1ccccc1` [Compound 116] it was 89%; in that of `CC(C)(c1nc(-c2ccccc2)c(C(=O)O)s1)c1c(Cl)cc(-n2ncc(=O)[nH]c2=O)cc1Cl` [Compound 117], −7%. For the compound `CCOC(=O)Cc1sc(C(C)(C)c2c(Cl)cc(-n3ncc(=O)[nH]c3=O)cc2Cl)nc1-c1cccs1` [Compound 118], the “% inh. (percentage inhibition of IL-5 production)” value is listed as 78%.

With `CC(C)(C)OC(=O)c1sc(C(C)(C)c2c(Cl)cc(-n3ncc(=O)[nH]c3=O)cc2Cl)nc1-c1cccs1` [Compound 119], the “% inh. (percentage inhibition of IL-5 production)” value is listed as 93%. As for `CC(C)(c1nc(-c2cccs2)c(C(=O)O)s1)c1c(Cl)cc(-n2ncc(=O)[nH]c2=O)cc1Cl` [Compound 120], the “% inh. (percentage inhibition of IL-5 production)” value came out at 8%. The same measure, in the same setting: in the case of `CC(C)(c1nc(-c2cccs2)c(CC(=O)O)s1)c1c(Cl)cc(-n2ncc(=O)[nH]c2=O)cc1Cl` [Compound 121] it was −3%; in that of `CC(C)OC(=O)c1sc(C(C)(C)c2c(Cl)cc(-n3ncc(=O)[nH]c3=O)cc2Cl)nc1-c1ccccc1` [Compound 122], 94%. Same read-out and setting: in the case of `Cc1ccc(-c2nc(C(C)(C)c3c(Cl)cc(-n4ncc(=O)[nH]c4=O)cc3Cl)no2)cc1` [Compound 125] it was 43%; in that of `CC(C)(c1noc(-c2cccc(CO)c2)n1)c1c(Cl)cc(-n2ncc(=O)[nH]c2=O)cc1Cl` [Compound 127], 67%.

On to `COC(=O)c1cccc(-c2nc(C(C)(C)c3c(Cl)cc(-n4ncc(=O)[nH]c4=O)cc3Cl)no2)c1` [Compound 133], for which the “% inh. (percentage inhibition of IL-5 production)” value is 55%.

As to `COC(=O)c1ccc(-c2nc(C(C)(C)c3c(Cl)cc(-n4ncc(=O)[nH]c4=O)cc3Cl)no2)cc1` [Compound 135], the “% inh. (percentage inhibition of IL-5 production)” value is 11%. For the compound `Cc1c(F)cccc1-c1nc(C(C)(C)c2c(Cl)cc(-n3ncc(=O)[nH]c3=O)cc2Cl)no1` [Compound 144], the “% inh. (percentage inhibition of IL-5 production)” value is 90%. For the compound `COC(=O)c1ccc(-c2nc(C(C)(C)c3c(Cl)cc(-n4ncc(=O)[nH]c4=O)cc3Cl)no2)nc1` [Compound 146], the “% inh. (percentage inhibition of IL-5 production)” value was 4%. For the compound `Cc1ccnc(C)c1-c1nc(C(C)(C)c2c(Cl)cc(-n3ncc(=O)[nH]c3=O)cc2Cl)no1.ClCCl` [Compound 151], the “% inh. (percentage inhibition of IL-5 production)” value is reported as 74%. As for `CC(C)(c1noc(C2CCNCC2)n1)c1c(Cl)cc(-n2ncc(=O)[nH]c2=O)cc1Cl.Cl` [Compound 152], the “% inh. (percentage inhibition of IL-5 production)” value stood at 21%. With `CC(C)(c1noc(-c2ccccc2C(F)(F)F)n1)c1c(Cl)cc(-n2ncc(=O)[nH]c2=O)cc1Cl` [Compound 153], the “% inh. (percentage inhibition of IL-5 production)” value worked out at 77%. The same measure, in the same setting: the value for `CC(C)(c1noc(-c2ccccc2CO)n1)c1c(Cl)cc(-n2ncc(=O)[nH]c2=O)cc1Cl` [Compound 155] was 85%; that for `CC(C)(c1noc(-c2ccccc2CC(=O)O)n1)c1c(Cl)cc(-n2ncc(=O)[nH]c2=O)cc1Cl` [Compound 158] was 3%; that for “(α+β)-2-[3,5-dichloro-4-[1-[5-[3-[[tetrahydro-3,4,5-trihydroxy-6-hydroxymethyl)-2H-pyran-2H-pyran-2-yl]amino]phenyl]-4-phenyl-2-thiazolyl]-1-methylethyl]phenyl]-1,2,4-triazine-3,5(2H,4H)-dione 2-propanolate(1:1) [Compound 64]” was 86%.

Still in this assay, the particulars now being: test dose 1×10^−6 M, phytohemagglutinin 2 μg/ml, 48 hours, read-out: % inh. (percentage inhibition of IL-5 production).
As a reminder, the inhibition is the relative decrease from the control value, in per cent. As for `CC(C)(c1noc(-c2ccccc2)n1)c1c(Cl)cc(-n2ncc(=O)[nH]c2=O)cc1Cl` [Compound 88, 2-[3,5-dichloro-4-[1-methyl-1-(5-phenyl-1,2,4-oxadiazol-3-yl)ethyl]phenyl]-1,2,4-triazine-3,5(2H,4H)-dione], the inhibition at 1 µM came out at 94%.

With `CN1CCN(Cc2ccccc2-c2nc(C(C)(C)c3c(Cl)cc(-n4ncc(=O)[nH]c4=O)cc3Cl)no2)CC1` [Compound 94, 2-[3,5-dichloro-4-[1-methyl-1-[5-[2-[(4-methyl-1-piperazinyl)methyl]phenyl]-1,2,4-oxadiazol-3-yl]ethyl]phenyl]-1,2,4-triazine-3,5(2H,4H)-dione trihydrochloride], the inhibition at 1 µM amounted to 34%. Still for that read-out and setting: in the case of `CC(C)(c1noc(-c2ccncc2)n1)c1c(Cl)cc(-n2ncc(=O)[nH]c2=O)cc1Cl` [Compound 97, 2-[3,5-dichloro-4-[1-methyl-1-[5-(4-pyridinyl)-1,2,4-oxadiazol-3-yl]ethyl]phenyl]-1,2,4-triazine-3,5(2H,4H)-dione] it was 90%; in that of `CC(C)(c1noc(-c2cccnc2)n1)c1c(Cl)cc(-n2ncc(=O)[nH]c2=O)cc1Cl` [Compound 124, 2-[3,5-dichloro-4-[1-methyl-1-[5-(3-pyridinyl)-1,2,4-oxadiazol-3-yl]ethyl]phenyl]-1,2,4-triazine-3,5(2H,4H)-dione], 86%; in that of `Cc1ncccc1-c1nc(C(C)(C)c2c(Cl)cc(-n3ncc(=O)[nH]c3=O)cc2Cl)no1` [Compound 150, 2-[3,5-dichloro-4-[1-methyl-1-[5-(2-methyl-3-pyridinyl)-1,2,4-oxadiazol-3-yl]ethyl]phenyl]-1,2,4-triazine-3,5(2H,4H)-dione], 73%.

The record behind these values is patent US6894046B2, “IL-5 inhibiting 6-azauracil derivatives” (Janssen Pharmaceutica N.V., priority 1998, dated 2005).
